Measured values: PubChem BioAssay AID248 (DTP/NCI, 2004)
“And” between values parts separate entries of the source, which are not always exact repeats. Equal values may be shown once. Toxic doses and inconclusive results are not listed. Rule as the data show it: active = T/C of 150% or more; inactive = T/C below 125%.

System: L1210 leukemia ip in BDF1 mice, survival T/C
Assay: NCI In Vivo Anticancer Drug Screen. Data for tumor model L1210 Leukemia (intraperitoneal) in B6D2F1 (BDF1) mice
Details: endpoint: mean survival time, higher = longer survival
Procedure, shortened: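 Ratio derived from survival: compound-dosed mice over vehicle-dosed mice, all bearing a transplantable tumor.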

[1] = dose: 100.0 mg/kg/injection, schedule: Q04DX002 (ip), vehicle: saline with Tween-80
[2] = dose: 50.0 mg/kg/injection, schedule: Q04DX002 (ip), vehicle: saline with Tween-80
[3] = dose: 100.0 mg/kg/injection, schedule: Q04DX003 (ip), vehicle: Klucel (hydroxypropylcellulose) (HPC)
[4] = dose: 200.0 mg/kg/injection, schedule: Q04DX003 (ip), vehicle: Klucel (hydroxypropylcellulose) (HPC)
[5] = dose: 400.0 mg/kg/injection, schedule: Q04DX003 (ip), vehicle: Klucel (hydroxypropylcellulose) (HPC)
[6] = dose: 50.0 mg/kg/injection, schedule: Q01DX009 (ip), vehicle: saline
[7] = dose: 100.0 mg/kg/injection, schedule: Q01DX009 (ip), vehicle: saline
[8] = dose: 200.0 mg/kg/injection, schedule: Q01DX009 (ip), vehicle: saline
[9] = dose: 50.0 mg/kg/injection, schedule: Q01DX009 (ip), vehicle: saline with Tween-80
[10] = dose: 100.0 mg/kg/injection, schedule: Q01DX009 (ip), vehicle: saline with Tween-80
[11] = dose: 200.0 mg/kg/injection, schedule: Q01DX009 (ip), vehicle: saline with Tween-80
[12] = dose: 100.0 mg/kg/injection, schedule: Q01DX001 (ip), vehicle: saline
[13] = dose: 200.0 mg/kg/injection, schedule: Q01DX001 (ip), vehicle: saline
[14] = dose: 400.0 mg/kg/injection, schedule: Q01DX001 (ip), vehicle: saline
[15] = dose: 100.0 mg/kg/injection, schedule: Q01DX009 (ip), vehicle: Klucel (hydroxypropylcellulose) (HPC)
[16] = dose: 200.0 mg/kg/injection, schedule: Q01DX009 (ip), vehicle: Klucel (hydroxypropylcellulose) (HPC)
[17] = dose: 400.0 mg/kg/injection, schedule: Q01DX009 (ip), vehicle: Klucel (hydroxypropylcellulose) (HPC)
[18] = dose: 100.0 mg/kg/injection, schedule: Q01DX001 (ip), vehicle: other
[19] = dose: 200.0 mg/kg/injection, schedule: Q01DX001 (ip), vehicle: other
[20] = dose: 400.0 mg/kg/injection, schedule: Q01DX001 (ip), vehicle: other

Measured: T/C

CN(Cc1cnc2nc(N)nc(N)c2n1)c1ccc(C(=O)NC(CCC(=O)O)C(=O)O)cc1[N+](=O)[O-] (centres undefined)
inactive: dose: 5.0 mg/kg/injection, schedule: Q01DX009 (ip), vehicle: sodium bicarbonate 112 % of control | dose: 10.0 mg/kg/injection, schedule: Q01DX009 (ip), vehicle: sodium bicarbonate 90 % of control
active: dose: 2.5 mg/kg/injection, schedule: Q01DX009 (ip), vehicle: sodium bicarbonate 155 % of control

O=C1OCC(O)(c2ccccc2)C1c1ccccc1 (centres undefined)
inactive: dose: 55.0 mg/kg/injection, schedule: Q01DX Z (ip), vehicle: methylcellulose (MC) 98 % of control | dose: 83.0 mg/kg/injection, schedule: Q01DX Z (ip), vehicle: methylcellulose (MC) 118 % of control | dose: 125.0 mg/kg/injection, schedule: Q01DX Z (ip), vehicle: methylcellulose (MC) 104 % of control

Cc1ccc2[nH]c(=S)n(-c3ccccc3)c(=O)c2c1
inactive: [1] 91 % of control | dose: 200.0 mg/kg/injection, schedule: Q04DX002 (ip), vehicle: saline with Tween-80 91 % of control | dose: 400.0 mg/kg/injection, schedule: Q04DX002 (ip), vehicle: saline with Tween-80 91 % of control

CCCCCc1cnc(NCCCC(N)C(=O)O)nc1 (centres undefined)
inactive: dose: 25.0 mg/kg/injection, schedule: Q04DX002 (ip), vehicle: saline with Tween-80 95 % of control | [2] 95 % of control | [1] 95 % of control

Cc1ccc(CNC(=S)Nc2ccccc2)cc1
inactive: dose: 1.56 mg/kg/injection, schedule: Q01DX009 (ip), vehicle: Klucel (hydroxypropylcellulose) (HPC) 107 % of control | dose: 3.12 mg/kg/injection, schedule: Q01DX009 (ip), vehicle: Klucel (hydroxypropylcellulose) (HPC) 104 % of control | dose: 6.25 mg/kg/injection, schedule: Q01DX009 (ip), vehicle: Klucel (hydroxypropylcellulose) (HPC) 96 % of control and 100 % of control | [3] 96 % of control | [4] 96 % of control | [5] 92 % of control

CC(C)(CO)NCC(C)(C)[N+](=O)[O-]
inactive: [3] 103 % of control | [4] 102 % of control | [5] 112 % of control

O=C1NC2(CCCCC2)C(=O)N1CCN(CCO)CCO
inactive: [6] 106 % of control | [7] 109 % of control | [8] 93 % of control | dose: 400.0 mg/kg/injection, schedule: Q01DX009 (ip), vehicle: saline 91 % of control

OC(CC(O)(c1ccccc1)c1ccccc1)(c1ccccc1)c1ccccc1
inactive: dose: 9.5 mg/kg/injection, schedule: Q01DX001 (ip), vehicle: other 93 % of control | dose: 19.0 mg/kg/injection, schedule: Q01DX001 (ip), vehicle: other 96 % of control | dose: 38.0 mg/kg/injection, schedule: Q01DX001 (ip), vehicle: other 93 % of control

CN(C)CCOC(=O)c1ccc(CCl)cc1
inactive: dose: 87.5 mg/kg/injection, schedule: Q01DX009 (ip), vehicle: saline 87 % of control | dose: 175.0 mg/kg/injection, schedule: Q01DX009 (ip), vehicle: saline 101 % of control

CCC1(C)OC(C)C(C)O1 (centres undefined)
inactive: [6] 100 % of control | [7] 107 % of control | [8] 104 % of control

C[N+]1(C)Cc2ccccc2-c2ccccc2C1
inactive: dose: 12.0 mg/kg/injection, schedule: Q04DX003 (ip), vehicle: saline 121 % of control | dose: 12.5 mg/kg/injection, schedule: Q01DX009 (ip), vehicle: saline 103 % of control | dose: 25.0 mg/kg/injection, schedule: Q01DX009 (ip), vehicle: saline 111 % of control | dose: 25.0 mg/kg/injection, schedule: Q04DX003 (ip), vehicle: saline 94 % of control | dose: 50.0 mg/kg/injection, schedule: Q04DX003 (ip), vehicle: saline 106 % of control

CCCCCCCCCCCCC/C=N/Nc1ccc([N+](=O)[O-])cc1[N+](=O)[O-]
inactive: [9] 100 % of control | [10] 93 % of control | [11] 93 % of control

[O-][N+](=C1c2ccccc2-c2ccccc21)c1ccccc1
inactive: dose: 100.0 mg/kg/injection, schedule: Q04DX003 (ip), vehicle: saline 94 % of control | dose: 200.0 mg/kg/injection, schedule: Q04DX003 (ip), vehicle: saline 92 % of control | dose: 400.0 mg/kg/injection, schedule: Q04DX003 (ip), vehicle: saline 94 % of control

COc1cc(Br)c(NC(C)=O)cc1OC
inactive: [12] 98 % of control | [13] 108 % of control | [14] 96 % of control

Cc1cc(Cl)ccc1OC(=O)Nc1c(C)cccc1C
inactive: [15] 101 % of control | [3] 98 % of control | [16] 101 % of control | [4] 103 % of control | [17] 89 % of control | [5] 101 % of control

CC(C)(C)c1cc(C[N+](C)(C)C)cc(C(C)(C)C)n1
inactive: [2] 92 % of control | [1] 99 % of control

CCCCC(NC(=O)C(F)(F)F)C(=O)O (centres undefined)
inactive: dose: 100.0 mg/kg/injection, schedule: Q01DX009 (ip), vehicle: carboxymethylcellulose (CMC) 105 % of control | dose: 200.0 mg/kg/injection, schedule: Q01DX009 (ip), vehicle: carboxymethylcellulose (CMC) 96 % of control

CCOCCOC(=O)COCC(=O)OCCOCC
inactive: [12] 100 % of control | [13] 94 % of control | [14] 98 % of control

CCOC(=O)C(=O)Cc1cnccn1
inactive: [18] 101 % of control and 108 % of control | [19] 100 % of control and 101 % of control | [20] 97 % of control

COc1ccc2c(c1)C1CCCCC1SCC2=O (centres undefined)
inactive: [18] 100 % of control | [19] 96 % of control | [20] 96 % of control

OCC(O)C(O)C(O)C(O)C(c1ccc(Br)cc1)c1ccc(Br)cc1 (centres undefined)
inactive: dose: 50.0 mg/kg/injection, schedule: Q01DX001 (ip), vehicle: saline 106 % of control | [12] 106 % of control | [13] 101 % of control | [14] 98 % of control

COc1ccc(OC)c(-c2nnc(Nc3ccc(S(=O)(=O)N4CCCCC4)cc3)s2)c1
inactive: [15] 94 % of control | [16] 91 % of control | [17] 91 % of control

CCOC(=O)C(C(=O)OCC)C(CC(=O)C1CC1)c1ccccc1 (centres undefined)
inactive: dose: 50.0 mg/kg/injection, schedule: Q01DX001 (ip), vehicle: carboxymethylcellulose (CMC) 92 % of control | dose: 100.0 mg/kg/injection, schedule: Q01DX001 (ip), vehicle: carboxymethylcellulose (CMC) 95 % of control | dose: 100.0 mg/kg/injection, schedule: Q04DX002 (ip), vehicle: Klucel (hydroxypropylcellulose) (HPC) 97 % of control | dose: 200.0 mg/kg/injection, schedule: Q01DX001 (ip), vehicle: carboxymethylcellulose (CMC) 92 % of control | dose: 200.0 mg/kg/injection, schedule: Q04DX002 (ip), vehicle: Klucel (hydroxypropylcellulose) (HPC) 101 % of control | dose: 400.0 mg/kg/injection, schedule: Q01DX001 (ip), vehicle: carboxymethylcellulose (CMC) 95 % of control | dose: 400.0 mg/kg/injection, schedule: Q04DX002 (ip), vehicle: Klucel (hydroxypropylcellulose) (HPC) 111 % of control

COc1cc2c(cc1OC)C(c1ccc(O)c(O)c1)CNC2 (centres undefined)
inactive: [9] 101 % of control | [10] 100 % of control | [11] 95 % of control

CCOC(=O)NC(C)(C)CN(C(=O)OCC)C(C)C
inactive: dose: 100.0 mg/kg/injection, schedule: Q04DX003 (ip), vehicle: saline with Tween-80 97 % of control | dose: 200.0 mg/kg/injection, schedule: Q04DX003 (ip), vehicle: saline with Tween-80 101 % of control | dose: 400.0 mg/kg/injection, schedule: Q04DX003 (ip), vehicle: saline with Tween-80 117 % of control

O=c1[nH]c(=O)n(C2OC(CO)C(O)C2O)cc1CCC(F)(F)F (centres undefined)
inactive: dose: 50.0 mg/kg/injection, schedule: Q01DX005 (ip), vehicle: saline 94 % of control | dose: 100.0 mg/kg/injection, schedule: Q01DX005 (ip), vehicle: saline 109 % of control | dose: 200.0 mg/kg/injection, schedule: Q01DX005 (ip), vehicle: saline 98 % of control
